“Also recorded” adds a separate entry of the source. Positions of bridges follow the written chain, without caps; N, C: chain ends. Non-standard residues stand in square brackets, D forms with d. Residues, ends and D or L forms follow the SMILES beside them. Dab = NCC[C@H](N)C(=O)O
Legend:
human KCNN2 = human KCNN2 (Homo sapiens, UniProt Q9H2S1); assay: Thallium flux assay, KCNN2 channel block; type: cell-based
Experimental: The effect of tamapin and Lei-Dab7 to block the KCNN2 channel was assessed by the thallium flux (potassium ion surrogate) assay using FLIPR Potassium Assay KIT (Molecular Devices, CA) and a FLIPR TETRA fluorescence imaging plate reader (Molecular Devices, CA). Human embryonic kidney (HEK) 293 cell line stably expressing human KCNN2 (Charles River, MA) were plated on BioCoat Poly-D-Lysine 384-well Black/Clear Plates (BD Biosciences, NJ) at 15 000 to 30 000 cells per well and incubated at 37°C overnight or until cells form near confluent monolayer. A baseline fluorescence was recorded during the pre-incubation period, followed by activation in the stimulus buffer (K^+-free buffer with 5 mM Tl^+). The effects of tamapin and Lei-Dab7 on KCNN2 to inhibit KCNN2 channel were evaluated at 4 different concentrations (n = 4) each, based on fluorescence changes due to the treatments. The signal elicited by the respective positive control agonist [1 μM A23187 (Tocris, UK)] was set to 0% inhibition, and the signal in the presence of the respective positive control antagonists [3 μM UCL1684 (Tocris, UK)] was set to 100% inhibition. The IC50 values were defined as the concentration at which the percent inhibition equals 50.
To determine the dose of Lei-Dab7 to be tested, we compared the effect of Lei-Dab7 and tamapin in blocking human KCNN2 expressed in HEK293 cells using a thallium-based potassium ion channel assay. […] Based on the effective dose of tamapin in mitigating motor skill–learning deficits in PAE mice (15 μg/kg body weight via i.p.)[17] and higher brain uptake of therapeutics by intranasal delivery than by i.p. delivery, we chose a dose of 3.0 μg/kg body weight to test the effect of intranasal administration of Lei-Dab7.
Supplementary Figure 3. Concentration-response relationships of Lei-Dab7 and Tamapin on the Inhibition of KCNN2 channels. (A, B) The concentration-response relationships of Lei-Dab7 (A) and Tamapin (B) on the inhibition of KCNN2 (SK2) channels examined by the thallium flux assay are presented. […]

rat = system: rat; parameters: method as in 2 sources, one per row (each row's own in cited_ref): ref 82 = [82]; PMID 15985330; doi:10.1016/j.neulet.2005.05.050; 82. Deschaux O , Bizot JC . Apamin produces selective improvements of learning in rats . Neurosci Lett. 2005; 386 : 5 – 8 . 10.1016/j.neulet.2005.05.050 15985330 ||| ref 26, 82, 83 = [26]; PMID 18561910; doi:10.1016/j.ejphar.2008.05.019; 26. Mpari B , Sreng L , Regaya I , Mourre C . Small-conductance Ca(2+)-activated K(+) channels: heterogeneous affinity in rat brain structures and cognitive modulation by specific blockers . Eur J Pha || [82]; PMID 15985330; doi:10.1016/j.neulet.2005.05.050; 82. Deschaux O , Bizot JC . Apamin produces selective improvements of learning in rats . Neurosci Lett. 2005; 386 : 5 – 8 . 10.1016/j.neulet.2005.05.050 15985330 || [83]; PMID 9148239; doi:10.1016/s0304-3940(97)13367-5; 83. Deschaux O , Bizot JC , Goyffon M . Apamin improves learning in an object recognition task in rats . Neurosci Lett. 1997; 222 : 159 – 162 . 10.1016/s0304-3940(97)13367-5 9148239; conditions: cited from earlier work
[1] = system: Jurkat (clone E6-1) cells; assay: ATP cell viability (cytotoxicity) assay, CellTiter-Glo 2.0; type: cell-based, human
Experimental: Potential cytotoxicity of Lei-Dab7 was assessed by an ATP detection assay. Jurkat (clone E6-1) cells were used as they express KCNN2 channels constitutively and have been used to assess the cytotoxicity of compounds that block KCNN2.[37]^,[38] After recovery from cryopreservation, cells were plated into V-bottom, 96-well plates (2 × 10^4 cells per well), and the compound (Lei-Dab7) or control (negative control: media alone or 10% PBS in media; positive control: approximately 1% sodium dodecyl sulfate in media) was added into the culture media. After incubation for 24 hours, cells were assessed for viability using a CellTiter-Glo 2.0 kit (Promega, WI). Briefly, CellTiter-Glo 2.0 reagent was thawed and warmed to approximately 22°C, then mixed by gentle inversion. Once thoroughly mixed, 100 μL of reagent was distributed into each well, and the plates were gently mixed for approximately 2 minutes on an orbital shaker for cell lysis. The plates were then incubated for approximately10 minutes at room temperature to stabilize the luminescent signal. The amount of light produced from each well was quantified using a Cytation 5 plate reader (BioTek, VT). Cell viability was calculated as a percentage of the mean of the negative control […] for each well. […]

Sequence of human KCNN2 (Q9H2S1 whole entry): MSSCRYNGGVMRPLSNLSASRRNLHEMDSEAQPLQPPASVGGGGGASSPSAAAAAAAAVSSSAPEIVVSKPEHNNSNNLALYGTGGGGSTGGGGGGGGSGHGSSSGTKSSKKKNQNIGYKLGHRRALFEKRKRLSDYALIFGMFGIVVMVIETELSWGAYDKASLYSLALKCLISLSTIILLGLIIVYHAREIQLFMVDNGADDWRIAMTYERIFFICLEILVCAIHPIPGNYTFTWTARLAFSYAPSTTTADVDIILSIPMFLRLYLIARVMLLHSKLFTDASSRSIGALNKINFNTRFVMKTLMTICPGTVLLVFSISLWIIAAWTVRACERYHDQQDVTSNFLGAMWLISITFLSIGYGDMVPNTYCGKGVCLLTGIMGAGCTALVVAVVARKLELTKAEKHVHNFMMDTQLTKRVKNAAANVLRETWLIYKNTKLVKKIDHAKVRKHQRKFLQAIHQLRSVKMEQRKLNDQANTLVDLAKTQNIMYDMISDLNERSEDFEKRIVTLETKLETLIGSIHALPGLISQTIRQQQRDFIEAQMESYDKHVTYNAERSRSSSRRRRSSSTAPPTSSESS

CC[C@H](C)[C@@H]1NC(=O)[C@@H]2CSSC[C@H](NC(=O)[C@H](Cc3ccccc3)NC(=O)[C@H](C)N)C(=O)N[C@@H](CC(N)=O)C(=O)N[C@@H](CC(C)C)C(=O)N[C@@H](CCCNC(=N)N)C(=O)N[C@@H](CCN)C(=O)N[C@H]3CSSC[C@H](NC(=O)[C@H](CCCCN)NC(=O)[C@H](CC(=O)O)NC(=O)CNC1=O)C(=O)N[C@@H](CCC(=O)O)C(=O)N[C@H](C(=O)N[C@H](C(=O)N[C@@H](CCCCN)C(=O)N[C@@H](Cc1c[nH]cn1)C(N)=O)C(C)C)CSSC[C@H](NC(=O)[C@H](CO)NC(=O)[C@H](CC(C)C)NC(=O)[C@H](CCC(N)=O)NC3=O)C(=O)N[C@@H](CCCNC(=N)N)C(=O)N[C@@H](CO)C(=O)N[C@@H](CC(C)C)C(=O)NCC(=O)N[C@@H](CC(C)C)C(=O)N[C@@H](CC(C)C)C(=O)NCC(=O)N[C@@H](CCCCN)C(=O)N2 [Lei-Dab7, Leiurotoxin-1 Dab7] (H-AFCNLR[Dab]CQLSCRSLGLLGKCIGDKCECVKH-NH2; disulfide 3-21, 8-26, 12-28)
IC50 (human KCNN2; HEK293 stably expressing human KCNN2, thallium flux, FLIPR Potassium Assay Kit, FLIPR TETRA, 4 concentrations, n = 4, 0% = 1 μM A23187, 100% = 3 μM UCL1684): 0.72 µM | IC50 of Lei-Dab7 relative to tamapin (times higher) (human KCNN2; ratio of IC50 Lei-Dab7 to IC50 tamapin, human KCNN2 in HEK293): > 10 times | negative effects on learning in rats (rat): no negative effects | cytotoxicity ([1]; 24-hour culture, ATP cell viability assay, even as high as at 100 μM): did not show any cytotoxicity | cytotoxicity (summary wording) ([1]; in vitro, abstract/introduction wording): negligible cytotoxicity; also recorded: no detectable cytotoxicity

From PMC12418948, “Intranasal Administration of KCNN2 Blocking Peptide Improves Deficits in Cognitive Flexibility in Mouse Model of Fetal Alcohol Spectrum Disorders” (International Journal of Neuropsychopharmacology, 2025)
